# Legend:
# Test in all cases: radiometric filter-binding kinase assay, Kinase HotSpot
# Conditions in all cases: compound 0.5 µM; ATP 10 µM
# [1] = molecular target: CLK3 (human) (UniProt P49761)
# [2] = molecular target: FYN (human) (UniProt P06241)
# [3] = molecular target: PLK3 (human) (UniProt Q9H4B4)
# [4] = molecular target: EPHA3 (human) (UniProt P29320)
# [5] = molecular target: MYLK2 (human) (UniProt Q9H1R3)
# [6] = molecular target: CSNK1A1 (human) (UniProt P48729)
# [7] = molecular target: MAPKAPK2 (human) (UniProt P49137)
# [8] = molecular target: EPHA7 (human) (UniProt Q15375)
# [9] = molecular target: PRKG2 (human) (UniProt Q13237)
# [10] = molecular target: IGF1R (human) (UniProt P08069)
# [11] = molecular target: JAK3 JH1 JH2 (human) (UniProt P52333)
# [12] = molecular target: NEK2 (human) (UniProt P51955)
# [13] = molecular target: MUSK (human) (UniProt O15146)
# [14] = molecular target: PRKCB2 (human) (UniProt P05771)
# [15] = molecular target: MAP3K11 (human) (UniProt Q16584)
# [16] = molecular target: TBK1 (human) (UniProt Q9UHD2)
# [17] = molecular target: IKBKB (human) (UniProt O14920)
# [18] = molecular target: STK17A (human) (UniProt Q9UEE5)
# [19] = molecular target: ROCK1 (human) (UniProt Q13464)
# [20] = molecular target: FGR (human) (UniProt P09769)
# [21] = molecular target: PRKCI (human) (UniProt P41743)
# [22] = molecular target: MAP3K5 (human) (UniProt Q99683)
# [23] = molecular target: EPHB1 (human) (UniProt P54762)
# [24] = molecular target: CSNK1E (human) (UniProt P49674)
# [25] = molecular target: ADRBK1 (human) (UniProt P25098)
# [26] = molecular target: RPS6KB1 (human) (UniProt P23443)
# [27] = molecular target: MST1R (human) (UniProt Q04912)
# [28] = molecular target: PKN2 (human) (UniProt Q16513)
# [29] = molecular target: PBK (human) (UniProt Q96KB5)
# [30] = molecular target: PAK4 (human) (UniProt O96013)
# [31] = molecular target: STK33 (human) (UniProt Q9BYT3)
# [32] = molecular target: CAMKK1 (human) (UniProt Q8N5S9)
# [33] = molecular target: CSNK2A1 (human) (UniProt P68400)
# [34] = molecular target: MLTK (human) (UniProt Q9NYL2)
# [35] = molecular target: RIPK2 (human) (UniProt O43353)
# [36] = molecular target: PRKCA (human) (UniProt P17252)
# [37] = molecular target: DYRK1B (human) (UniProt Q9Y463)
# [38] = molecular target: CDK3 CCNE1 (human) (UniProt Q00526+P24864)
# [39] = molecular target: ERBB2 (human) (UniProt P04626)
# [40] = molecular target: IKBKE (human) (UniProt Q14164)
# [41] = molecular target: MAP4K2 (human) (UniProt Q12851)
# [42] = molecular target: TYRO3 (human) (UniProt Q06418)
# Chain of MAP3K11 (human) (Q16584 whole entry, looked up): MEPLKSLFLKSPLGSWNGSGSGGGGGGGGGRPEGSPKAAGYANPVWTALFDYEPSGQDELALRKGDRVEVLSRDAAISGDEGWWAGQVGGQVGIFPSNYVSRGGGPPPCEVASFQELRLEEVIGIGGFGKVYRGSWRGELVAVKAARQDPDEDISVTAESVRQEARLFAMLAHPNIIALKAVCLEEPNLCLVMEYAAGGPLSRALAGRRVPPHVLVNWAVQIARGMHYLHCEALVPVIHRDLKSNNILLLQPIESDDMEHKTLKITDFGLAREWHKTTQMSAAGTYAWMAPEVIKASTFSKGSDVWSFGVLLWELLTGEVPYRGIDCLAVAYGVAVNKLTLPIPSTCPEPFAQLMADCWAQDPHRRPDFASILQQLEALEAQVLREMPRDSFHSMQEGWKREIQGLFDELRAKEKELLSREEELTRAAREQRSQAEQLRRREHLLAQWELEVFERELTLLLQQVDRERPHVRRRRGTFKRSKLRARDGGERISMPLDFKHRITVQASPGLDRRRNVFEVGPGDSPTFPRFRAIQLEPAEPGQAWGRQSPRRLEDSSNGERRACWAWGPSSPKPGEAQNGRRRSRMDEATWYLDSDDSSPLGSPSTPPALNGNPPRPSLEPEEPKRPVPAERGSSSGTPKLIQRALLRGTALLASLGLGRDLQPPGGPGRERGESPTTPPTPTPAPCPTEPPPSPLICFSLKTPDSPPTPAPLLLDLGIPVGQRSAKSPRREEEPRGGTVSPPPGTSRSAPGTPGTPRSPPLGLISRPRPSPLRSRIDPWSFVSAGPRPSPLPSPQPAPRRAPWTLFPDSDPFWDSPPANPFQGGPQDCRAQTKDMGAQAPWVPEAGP
# Chain of ADRBK1 (human) (P25098 whole entry, looked up): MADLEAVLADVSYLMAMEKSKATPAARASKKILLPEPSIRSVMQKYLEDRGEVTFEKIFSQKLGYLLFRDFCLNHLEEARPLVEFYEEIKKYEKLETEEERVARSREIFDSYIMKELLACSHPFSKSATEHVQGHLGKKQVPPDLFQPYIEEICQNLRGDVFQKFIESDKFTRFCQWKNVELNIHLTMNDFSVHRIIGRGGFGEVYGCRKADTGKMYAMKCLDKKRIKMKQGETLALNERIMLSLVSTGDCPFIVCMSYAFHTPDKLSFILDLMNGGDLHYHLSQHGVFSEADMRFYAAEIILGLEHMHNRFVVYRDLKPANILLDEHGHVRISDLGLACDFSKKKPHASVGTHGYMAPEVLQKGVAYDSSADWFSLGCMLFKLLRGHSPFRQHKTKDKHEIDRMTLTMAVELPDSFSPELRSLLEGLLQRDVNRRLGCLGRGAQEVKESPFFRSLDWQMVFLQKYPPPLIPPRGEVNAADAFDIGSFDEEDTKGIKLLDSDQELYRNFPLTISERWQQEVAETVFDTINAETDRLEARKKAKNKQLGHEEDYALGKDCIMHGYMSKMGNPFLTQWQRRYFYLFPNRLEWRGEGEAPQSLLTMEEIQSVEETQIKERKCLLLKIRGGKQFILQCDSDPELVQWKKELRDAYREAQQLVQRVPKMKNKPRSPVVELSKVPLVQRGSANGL
# Chain of MLTK (human) (Q9NYL2 whole entry, looked up): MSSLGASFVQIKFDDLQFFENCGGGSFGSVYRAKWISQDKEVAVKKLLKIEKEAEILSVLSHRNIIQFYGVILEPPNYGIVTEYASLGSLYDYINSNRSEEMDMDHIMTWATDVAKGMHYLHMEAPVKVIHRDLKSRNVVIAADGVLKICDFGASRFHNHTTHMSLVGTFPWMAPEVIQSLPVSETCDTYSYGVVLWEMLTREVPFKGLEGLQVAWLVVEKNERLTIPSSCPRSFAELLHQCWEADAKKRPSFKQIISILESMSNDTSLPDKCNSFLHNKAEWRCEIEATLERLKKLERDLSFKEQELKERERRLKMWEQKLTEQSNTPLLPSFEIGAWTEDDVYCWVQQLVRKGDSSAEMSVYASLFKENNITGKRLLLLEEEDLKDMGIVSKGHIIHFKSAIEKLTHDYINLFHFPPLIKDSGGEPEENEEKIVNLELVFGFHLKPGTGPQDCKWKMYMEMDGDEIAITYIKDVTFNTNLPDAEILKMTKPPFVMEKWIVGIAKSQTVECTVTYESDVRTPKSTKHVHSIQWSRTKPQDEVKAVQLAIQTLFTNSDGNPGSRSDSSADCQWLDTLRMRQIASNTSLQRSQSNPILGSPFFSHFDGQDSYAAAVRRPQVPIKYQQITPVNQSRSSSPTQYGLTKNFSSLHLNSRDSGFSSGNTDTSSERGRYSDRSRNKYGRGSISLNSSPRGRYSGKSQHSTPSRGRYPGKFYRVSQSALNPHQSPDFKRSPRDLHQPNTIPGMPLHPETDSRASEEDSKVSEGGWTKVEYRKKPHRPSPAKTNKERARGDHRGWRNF
# Chain of EPHB1 (human) (P54762 whole entry, looked up): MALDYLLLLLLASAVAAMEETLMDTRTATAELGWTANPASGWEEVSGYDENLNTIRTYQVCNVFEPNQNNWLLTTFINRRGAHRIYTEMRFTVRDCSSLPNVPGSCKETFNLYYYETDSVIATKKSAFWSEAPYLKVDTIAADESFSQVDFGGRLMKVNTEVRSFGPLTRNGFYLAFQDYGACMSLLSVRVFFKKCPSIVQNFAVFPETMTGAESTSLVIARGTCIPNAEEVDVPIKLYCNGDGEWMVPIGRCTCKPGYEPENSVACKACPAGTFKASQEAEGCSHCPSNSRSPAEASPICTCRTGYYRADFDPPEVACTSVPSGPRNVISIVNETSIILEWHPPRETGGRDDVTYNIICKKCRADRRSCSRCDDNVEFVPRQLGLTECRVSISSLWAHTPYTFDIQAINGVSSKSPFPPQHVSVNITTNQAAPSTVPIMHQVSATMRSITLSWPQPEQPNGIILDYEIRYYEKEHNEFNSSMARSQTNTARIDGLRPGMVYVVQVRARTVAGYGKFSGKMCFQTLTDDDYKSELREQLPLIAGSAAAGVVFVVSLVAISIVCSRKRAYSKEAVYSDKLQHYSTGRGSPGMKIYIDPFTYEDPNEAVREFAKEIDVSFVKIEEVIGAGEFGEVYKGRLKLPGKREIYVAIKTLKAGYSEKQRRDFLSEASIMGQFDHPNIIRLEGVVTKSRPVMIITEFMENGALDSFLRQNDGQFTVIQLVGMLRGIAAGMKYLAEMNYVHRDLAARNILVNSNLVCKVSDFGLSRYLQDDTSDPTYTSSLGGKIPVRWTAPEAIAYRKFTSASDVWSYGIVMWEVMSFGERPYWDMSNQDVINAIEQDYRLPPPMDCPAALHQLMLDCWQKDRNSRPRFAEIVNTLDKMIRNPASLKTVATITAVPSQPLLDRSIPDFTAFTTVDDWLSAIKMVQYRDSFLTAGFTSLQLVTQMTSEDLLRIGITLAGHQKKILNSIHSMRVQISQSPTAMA
# Chain of STK33 (human) (Q9BYT3 whole entry, looked up): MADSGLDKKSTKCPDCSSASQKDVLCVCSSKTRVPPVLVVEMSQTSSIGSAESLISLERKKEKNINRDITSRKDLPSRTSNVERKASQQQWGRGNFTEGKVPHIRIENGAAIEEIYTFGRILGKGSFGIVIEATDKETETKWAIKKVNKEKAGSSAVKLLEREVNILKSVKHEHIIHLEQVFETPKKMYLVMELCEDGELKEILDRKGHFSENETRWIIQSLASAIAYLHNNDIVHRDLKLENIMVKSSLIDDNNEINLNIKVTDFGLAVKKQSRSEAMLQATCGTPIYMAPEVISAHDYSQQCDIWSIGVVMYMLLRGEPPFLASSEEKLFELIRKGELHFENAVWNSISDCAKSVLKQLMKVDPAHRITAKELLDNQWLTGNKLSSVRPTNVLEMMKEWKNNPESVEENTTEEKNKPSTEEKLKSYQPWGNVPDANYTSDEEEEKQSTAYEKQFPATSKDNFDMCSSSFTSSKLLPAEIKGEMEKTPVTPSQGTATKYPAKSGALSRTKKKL
# Chain of DYRK1B (human) (Q9Y463 whole entry, looked up): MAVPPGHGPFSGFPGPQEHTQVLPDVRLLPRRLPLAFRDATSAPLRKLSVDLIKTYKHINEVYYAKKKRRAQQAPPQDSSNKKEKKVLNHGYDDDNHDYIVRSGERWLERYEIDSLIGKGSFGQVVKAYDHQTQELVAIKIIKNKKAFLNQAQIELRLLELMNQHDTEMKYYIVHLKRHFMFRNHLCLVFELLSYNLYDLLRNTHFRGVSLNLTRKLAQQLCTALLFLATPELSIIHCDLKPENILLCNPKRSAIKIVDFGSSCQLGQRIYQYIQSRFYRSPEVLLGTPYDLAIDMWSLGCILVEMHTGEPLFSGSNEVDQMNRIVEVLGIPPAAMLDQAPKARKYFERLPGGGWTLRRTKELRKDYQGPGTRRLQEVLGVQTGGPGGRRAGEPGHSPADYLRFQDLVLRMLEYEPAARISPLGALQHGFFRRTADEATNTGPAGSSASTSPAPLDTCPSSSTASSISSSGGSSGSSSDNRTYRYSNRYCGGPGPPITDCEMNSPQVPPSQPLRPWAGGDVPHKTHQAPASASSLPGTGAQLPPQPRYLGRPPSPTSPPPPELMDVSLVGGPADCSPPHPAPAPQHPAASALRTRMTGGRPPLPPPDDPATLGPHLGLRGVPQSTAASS
# Chain of CLK3 (human) (P49761 whole entry, looked up): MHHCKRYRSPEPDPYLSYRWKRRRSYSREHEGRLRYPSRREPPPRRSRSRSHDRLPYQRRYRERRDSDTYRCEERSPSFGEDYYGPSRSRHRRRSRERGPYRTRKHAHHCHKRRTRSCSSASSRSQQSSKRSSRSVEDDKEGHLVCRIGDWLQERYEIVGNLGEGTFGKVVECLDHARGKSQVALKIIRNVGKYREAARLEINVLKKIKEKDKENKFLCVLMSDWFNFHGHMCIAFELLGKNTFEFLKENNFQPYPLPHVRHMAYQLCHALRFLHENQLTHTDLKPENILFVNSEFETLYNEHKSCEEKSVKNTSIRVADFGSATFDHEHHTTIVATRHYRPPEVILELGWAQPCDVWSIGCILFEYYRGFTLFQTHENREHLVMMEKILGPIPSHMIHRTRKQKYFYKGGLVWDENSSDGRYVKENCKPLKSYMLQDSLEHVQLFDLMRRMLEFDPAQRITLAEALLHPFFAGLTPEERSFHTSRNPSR
smiles,measurement,setting,value
CCN1/C(=C/C(C)=O)Sc2ccc(OC)cc21,residual activity,[1],95%
same,residual activity,[2],99.1%
same,residual activity,[3],99.4%
same,residual activity,[4],89.9%
same,residual activity,[5],95.1%
same,residual activity,[6],53%
same,residual activity,[7],94.6%
same,residual activity,[8],95.8%
same,residual activity,[9],65.8%
same,residual activity,[10],98.3%
same,residual activity,[11],103%
same,residual activity,[12],97.6%
same,residual activity,[13],28.4%
same,residual activity,[14],99.3%
same,residual activity,[15],102%
same,residual activity,[16],94.5%
same,residual activity,[17],102%
same,residual activity,[18],99.3%
same,residual activity,[19],99.3%
same,residual activity,[20],91.7%
same,residual activity,[21],97.8%
same,residual activity,[22],118%
same,residual activity,[23],90.6%
same,residual activity,[24],60.1%
same,residual activity,[25],95.5%
same,residual activity,[26],95%
same,residual activity,[27],94.5%
same,residual activity,[28],99.7%
same,residual activity,[29],94.8%
same,residual activity,[30],108%
same,residual activity,[31],57.4%
same,residual activity,[32],105%
same,residual activity,[33],98.1%
same,residual activity,[34],91%
same,residual activity,[35],86.3%
same,residual activity,[36],68.7%
same,residual activity,[37],32.9%
same,residual activity,[38],91.5%
same,residual activity,[39],99.9%
same,residual activity,[40],99%
same,residual activity,[41],105%
CC(C)[C@H](CO)Nc1nc(Nc2cccc(Cl)c2)c2ncn(C(C)C)c2n1,residual activity,[1],89.7%
same,residual activity,[2],48.9%
same,residual activity,[3],86.4%
same,residual activity,[4],105%
same,residual activity,[5],97.1%
same,residual activity,[6],91.8%
same,residual activity,[7],102%
same,residual activity,[8],86.8%
same,residual activity,[9],89.3%
same,residual activity,[10],100%
same,residual activity,[11],92.5%
same,residual activity,[12],102%
same,residual activity,[13],56.8%
same,residual activity,[14],88.6%
same,residual activity,[15],40.2%
same,residual activity,[16],93%
same,residual activity,[17],107%
same,residual activity,[18],95%
same,residual activity,[19],100%
same,residual activity,[20],44.3%
same,residual activity,[21],96.6%
same,residual activity,[22],108%
same,residual activity,[23],83.5%
same,residual activity,[24],87.3%
same,residual activity,[25],103%
same,residual activity,[26],90.8%
same,residual activity,[27],90.6%
same,residual activity,[29],102%
same,residual activity,[30],99.5%
same,residual activity,[31],74.4%
same,residual activity,[32],101%
same,residual activity,[33],101%
same,residual activity,[34],108%
same,residual activity,[42],98.9%
same,residual activity,[35],88.1%
same,residual activity,[36],115%
same,residual activity,[37],49.9%
same,residual activity,[38],34.5%
same,residual activity,[39],97.1%
same,residual activity,[40],99.2%
same,residual activity,[41],97.6%
